The results in this text go back to patent US10377770B2 (Novartis AG, priority 2015, dated 2019).

For the assay, the target named is C-Raf FL (full length CRAF with Y340E and Y341E activating mutations, co-expressed with h14-3-3 zeta) (Homo sapiens (Human), UniProt P04049, Y340E/Y341E). In words: In vitro Raf activity determination, AlphaScreen p-MEK readout, c-Raf (C-Raf FL). The note with it: c-Raf approximately 4 nM, ATP 1 μM, pre-incubation 60 minutes, reaction 1 hour. Type of assay: biochemical. Put shortly: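 Full-length C-Raf (~4 nM) pre-incubated 60 min at room temperature with compound and kinase-dead biotinylated MEK1 (~10 nM) in Tris pH 7.5, 15 mM MgCl2, BSA, DTT. Reaction started with 1 μM ATP and run 1 h at room temperature. Phospho-MEK detected by AlphaScreen with anti-p-MEK antibody.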
Chain of C-Raf FL (full length CRAF with Y340E and Y341E activating mutations, co-expressed with h14-3-3 zeta) (P04049 whole entry Y340E/Y341E): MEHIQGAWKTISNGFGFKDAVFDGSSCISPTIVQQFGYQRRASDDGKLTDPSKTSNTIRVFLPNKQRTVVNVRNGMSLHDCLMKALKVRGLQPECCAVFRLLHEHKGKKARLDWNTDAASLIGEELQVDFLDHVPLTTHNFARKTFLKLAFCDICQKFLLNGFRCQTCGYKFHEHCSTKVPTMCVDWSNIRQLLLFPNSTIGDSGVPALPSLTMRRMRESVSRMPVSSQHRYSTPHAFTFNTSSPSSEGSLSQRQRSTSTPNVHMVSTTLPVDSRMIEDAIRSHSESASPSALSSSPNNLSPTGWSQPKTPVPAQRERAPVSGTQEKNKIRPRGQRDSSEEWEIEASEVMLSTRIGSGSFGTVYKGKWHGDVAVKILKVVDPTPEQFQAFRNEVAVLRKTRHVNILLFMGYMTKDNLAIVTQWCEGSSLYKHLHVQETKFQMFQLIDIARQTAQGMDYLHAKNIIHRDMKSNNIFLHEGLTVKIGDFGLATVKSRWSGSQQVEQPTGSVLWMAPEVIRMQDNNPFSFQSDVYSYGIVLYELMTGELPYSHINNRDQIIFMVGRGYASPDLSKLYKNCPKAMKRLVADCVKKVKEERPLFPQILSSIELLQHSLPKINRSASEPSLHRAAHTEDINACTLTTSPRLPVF
Chain of C-Raf FL (full length CRAF with Y340E and Y341E activating mutations, co-expressed with h14-3-3 zeta) (P63104 whole entry partner): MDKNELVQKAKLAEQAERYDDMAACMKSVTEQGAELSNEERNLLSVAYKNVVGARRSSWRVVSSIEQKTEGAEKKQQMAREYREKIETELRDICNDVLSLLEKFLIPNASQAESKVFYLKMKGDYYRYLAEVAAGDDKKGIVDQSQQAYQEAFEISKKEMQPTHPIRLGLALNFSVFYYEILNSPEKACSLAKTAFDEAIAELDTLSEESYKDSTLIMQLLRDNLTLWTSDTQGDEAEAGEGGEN

For the molecule `CCN1C(=O)C2COCC[C@@]2(C)c2cc(-c3cc(NC(=O)c4cncc(C(F)(F)F)c4)ccc3C)cnc21` (stereo in doubt) [Example 346, N-(3-((4a,10b-trans)-6-ethyl-10b-methyl-5-oxo-1,4,4a,5,6,10b-hexahydro-2H-pyrano[3,4-c][1,8]naphthyridin-9-yl)-4-methylphenyl)-5-(trifluoromethyl)nicotinamide], the IC50 (commonly the point on the concentration scale where inhibition reaches its midpoint) is 0.1 nM.

In turn, `Cc1ccc(NC(=O)c2ccnc(C(F)(F)F)c2)cc1-c1cnc2c(c1)N1CCOCCC1CC(=O)N2CCO` (stereo not shown) [Example 318, N-(3-(8-(2-hydroxyethyl)-7-oxo-1,2,4,5,5a,6,7,8-octahydropyrido[3′, 2′:2,3][1,4]diazepino [1,7-d][1,4]oxazepin-11-yl)-4-methylphenyl)-2-(trifluoromethyl) isonicotinamide] gave an IC50 of 1.4 nM.

In turn, `CCN1C(=O)C2CCOCCC2c2cc(-c3cc(NC(=O)c4ccnc(C(C)(C)F)c4)cnc3C)cnc21` (stereo not drawn) [Example 251, N-(5-((5a, 11b- trans)-7-ethyl-6-oxo-1,2,4,5,5a, 6,7,11b-octahydrooxepino [4,5-c[1,8]naphtliyridin-10-yl)-6-methylpyridin-3-yl)-2-(2-fluoropropan-2-yl)isonicotinamide] came in with an IC50 of 0.2 nM.

For the molecule `CCN1C(=O)C[C@@H]2COCCN2c2cc(-c3cc(NC(=O)c4cncc(C(F)(F)F)c4)ccc3C)cnc21` [Example 328, (R)-N-(3-(7-ethyl-6-oxo-2,4,4a,5,6,7-hexahydro-1H-[1,4]oxazino[4,3-d]pyrido[2,3-b][1,4]diazepin-10-yl)-4-methylphenyl)-5-(trifluoromethyl) nicotinamide], the midpoint of inhibition, the IC50, lay at 0.1 nM.

As to `CCN1C(=O)C2CCOCCC2c2cc(-c3cc(NC(=O)c4cccc(C(F)(F)F)c4)cnc3C)cnc21` (stereo not drawn) [Example 250, N-(5-((5a, 11b- trans)-7-ethyl-6-oxo-1,2,4,5,5a,6,7,11b-octahydrooxepino [4,5-c][1,8]naphthyridin-10-yl)-6-methylpyridin-3-yl)-3-(trifluoromethyl) benzamide], the IC50 stood at 0.3 nM.

Turning to `CNC(=O)C1Cc2ccc(-c3cc(NC(=O)c4ccnc(C(C)(F)F)c4)ccc3C)cc2N2CCOCC12` (racemic) [Example 67, (rac)-9-(5-(2-(1,1-difluoroethyl)isonicotinamido)-2-methylphenyl)-N-methyl-1,2,4,4a,5,6-hexahydro-[1,4]oxazino[4,3-a]quinoline-5-carboxamide], the midpoint of inhibition, the IC50, lay at 0.13 nM.

`Cc1ccc(NC(=O)c2ccnc(C(C)(F)F)c2)cc1-c1cnc2c(c1)N1CCOC[C@H]1CC(=O)N2CC(C)(C)O` [Example 289, (R)-2-(1,1-difluoroethyl)-N-(3-(7-(2-hydroxy-2-methylpropyl)-6-oxo-2,4,4a,5,6,7-hexahydro-1H-[1,4]oxazino[4,3-d]pyrido[2,3-b][1,4]diazepin-10-yl)-4-methylphenyl) isonicotinamide]: the IC50 was 0.9 nM.

In turn, `Cc1ccc(NC(=O)c2ccnc(C(F)(F)F)c2)cc1-c1ccc2c(c1)N1CCOCC1c1cn(C)nc1-2` (racemic) [Example 45, (rac)-N-(4-methyl-3-(2-methyl-3b,4,6,7-tetrahydro-2H-[1,4]oxazino[4,3-a]pyrazolo[4,3-c]quinolin-10-yl)phenyl)-2-(trifluoromethyl)isonicotinamide] returned an IC50 of 0.17 nM.

`CCN1C(=O)Cc2nncn2-c2cc(-c3cc(NC(=O)c4ccnc(C(C)(F)F)c4)ccc3C)cnc21` (racemic) [Example 234, 2-(1,1-difluoroethyl)-N-(3-(6-ethyl-5-oxo-5,6-dihydro-4H-pyrido[2,3-b][1,2,4]triazolo[4,3-d][1,4]diazepin-9-yl)-4-methylphenyl)isonicotinamide] had an IC50 of 1.3 nM.

With `CCN1C[C@@H]2COCC[C@H]2c2cc(-c3cc(NC(=O)c4cccc(C(F)(F)F)c4F)cnc3C)cnc21` [Example 294, N-(5-((4aR, 10bR)-6-ethyl-2,4,4a,5,6,10b-hexahydro-1H-pyrano[3,4-c][1,8]naphthyridin-9-yl)-6-methylpyridin-3-yl)-2-fluoro-3-(trifluoromethyl) benzamide], inhibition was half-maximal at 0.1 nM (IC50).

`Cc1ccc(NC(=O)c2cncc(C(F)(F)F)c2)cc1-c1cc2c(cc1F)C[C@](F)(CO)[C@@H]1COCCN21` [Example 487, N-(3-((4aS,5R)-5,8-difluoro-5-(hydroxymethyl)-1,2,4,4a,5,6-hexahydro-[1,4]oxazino[4,3-a]quinolin-9-yl)-4-methylphenyl)-5-(trifluoromethyl) nicotinamide] came in with an IC50 of 0.7 nM.

The molecule `Cc1ccc(NC(=O)c2ccnc(C(C)(C)F)c2)cc1-c1cc(F)c2c(c1)N1CCOC[C@H]1[C@@](F)(CO)C2` [Example 432, N-(3-((4aS,5R)-5,7-difluoro-5-(hydroxymethyl)-1,2,4,4a,5,6-hexahydro-[1,4]oxazino[4,3-a]quinolin-9-yl)-4-methylphenyl)-2-(2-fluoropropan-2-yl)isonicotinamide] gave an IC50 of 0.7 nM.

Consider `CCN1C(=O)Cc2nncn2-c2cc(-c3cc(NC(=O)c4ccnc(C(F)(F)F)c4)ccc3C)cnc21` [Example 237, N-(3-(6-ethyl-5-oxo-5,6-dihydro-4H-pyrido[2,3-b][1,2,4]triazo1o[4,3-d][1,4]diazepin-9-yl)-4-methylphenyl)-2-(trifluoromethyl) isonicotinamide], for which 1.3 nM corresponded to half-maximal inhibition (IC50).

`Cc1ccc(NC(=O)c2ccnc(C(F)(F)F)c2)cc1-c1cnc2c(c1)N1CCOCC1CC2(F)F` (racemic) [Example 111, rac-N-(3-(6,6-Difluoro-1,2,4,4a,5,6-hexahydro-[1,4]oxazino[4,3-a][1,5]naphthyridin-9-yl)-4-methylphenyl)-2-(trifluoromethyl)isonicotinamide]: half-maximal inhibition (IC50) was put at 0.0054 nM.

`CCN1C(=O)N2COCCC2(C)c2cc(-c3cc(NC(=O)c4ccnc(C(F)(F)F)c4)ccc3C)ccc21` (stereo not shown) [Example 244, N-(3-(7-ethyl-11b-methyl-6-oxo-1,2,4,6,7,11b-hexahydro-[1,3]oxazino[3,4-c]quinazolin-10-yl)-4-methylphenyl)-2-(trifluoromethyl) isonicotinamide] had an IC50 of 0.1 nM.

Molecule `Cc1ncc(NC(=O)c2ccnc(C(C)(C)C)c2)cc1-c1ccc2c(c1)N1CCOC[C@H]1[C@](F)(CF)C2` [Example 468, 2-(tert-butyl)-N-(5-((4aS,5S)-5-fluoro-5-(fluoromethyl)-1,2,4,4a,5,6-hexahydro-[1,4]oxazino[4,3-a]quinolin-9-yl)-6-methylpyridin-3-yl)isonicotinamide] returned an IC50 of 8 nM.

Take `CCN1C(=O)OC2COCCC2c2cc(-c3cc(NC(=O)c4cccc(C(F)(F)F)c4)cnc3C)cnc21` [Example 296, N-(5-((4aS,11bR- cis)-7-ethyl-6-oxo-2,4,4a,6,7,11b-hexahydro-1H-pyrano[4,3-f]pyrido[2,3-d][1,3]oxazepin-10-yl)-6-methylpyridin-3-yl)-3-(trifluoromethyl) benzamide]: half-maximal inhibition (IC50) was put at 1.8 nM.

The molecule `Cc1ccc(NC(=O)c2ccnc(C(F)(F)F)c2)cc1-c1cnc2c(c1)N1CCOCC1C(C)(C)C2O` (single isomer, unassigned) [Example 334, N-(3-(6-hydroxy-5,5-dimethyl-1,2,4,4a,5,6-hexahydro-[1,4]oxazino[4,3-a][1,5]naphthyridin-9-yl)-4-methylphenyl)-2-(trifluoromethyl)isonicotinamide] returned an IC50 of 0.4 nM.

Consider `COC1CC2COCCN2c2cc(-c3cc(NC(=O)c4ccnc(C(F)(F)F)c4)ccc3C)cnc21` (racemic) [Example 34], for which the IC50 worked out at 0.0087 nM.

Take `Cc1ncc(NC(=O)c2cccc(C(F)(F)F)c2)cc1-c1cnc2c(c1)[C@@H]1CCOC[C@H]1C(=O)N2CC(F)F` [Example 266, N-(5-((4aS, 10bR)-6-(2,2-difluoroethyl)-5-oxo-2,4,4a,5,6,10b-hexahydro-1H-pyrano[3,4-c][1,8]naphthyridin-9-yl)-6-methylpyridin-3-yl)-3-(trifluoromethyl) benzamide]: the IC50 came to 0.3 nM.

In the case of `Cc1ncc(NC(=O)c2cccc(C(F)(F)F)c2)cc1-c1cnc2c(c1)N1CCOC[C@@H]1C[C@@H]2O` [Example 106, N-(5-((4aS,6S)-6-Hydroxy-1,2,4,4a,5,6-hexahydro-[1,4]oxazino[4,3-a][1,5]naphthyridin-9-yl)-6-methylpyridin-3-yl)-3-(trifluoromethyl)benzamide], half-maximal inhibition (IC50) required 0.012 nM.

Turning to `CCN1C(=O)CC2COCCN2c2cc(-c3cc(NC(=O)c4ccnc(C(F)(F)F)c4)ccc3C)cnc21` (racemic) [Example 128, rac-N-(3-(7-Ethyl-6-oxo-1,2,4a,5,6,7-hexahydro-4H-[1,4]oxazino[4,3-d]pyrido[2,3-b][1,4]diazepin-10-yl)-4-methylphenyl)-2-(trifluoromethyl)isonicotinamide], the IC50 was 0.023 nM.
